Assay [1] is described as follows: 21-day battery study in chickens (Example XIII). Type of assay: in vivo. Particulars: feed 30 g/ton. The protocol:
N-morpholinyl-β-benzoyl-propionamide was admixed with chicken feed at concentrations of 1.0 ppm, 7.5 ppm and 15 ppm. A 21-day battery study was conducted with the NMBP-containing feed. One group of controls was unmedicated, while a second control group received Bacitracin MD in its feed at 30 g/ton. The birds were fed ad libitum and weighed on days 7, 14 and 21. There were 10 birds per replication, 4 replications in controls and 2 replications per drug treatment.

The nature of assay [2]: 44-day floor pen study in chickens (Example XIV). Particulars: feed 30 g/ton. Type of assay: in vivo. Here is the method:
A 44-day floor pen study was conducted in which n-morpholinyl-β-benzoyl-propionamide was administered in chicken feed at concentrations of 1 ppm, 2.5 ppm, 5 ppm, 10 ppm, 20 ppm, 40 ppm and 60 ppm. One group of controls received no medication in its feed, while a second control group received Bacitracin MD in its feed at 30 g/ton. Birds were fed ad libitum. There were 5 replications per treatment, 50 birds per replication. Birds were weighed to determine weight gain and feed-to-gain ration after 35 days and 44 days.

The nature of assay [3]: 44-day floor-pen study in chickens (Example XV). It is filed as in vivo. Particulars: feed 30 g/ton, 44 days. The text has this: There were 60 chickens per replication, 3 replications per treatment. One group of controls was unmedicated, while a second control group received Bacitracin in the feed at 30 g/ton.
Assay [4] is described as follows: 28-day chicken growth study, feed or i.m. injection (Example XII). Type of assay: in vivo, chickens. As to conditions: feed 30 g/ton. Here is the method: Portions of N-morpholinyl-β-benzoyl-propionamide were admixed with chicken feed at 1 mg/kg and a 2 mg/kg, respectively. Another portion was formulated into an injectable formulation at a concentration of 2% in polyethylene glycol. The N-morpholinyl-β-benzoylpropionamide was then administered to chickens, either by i.m. injection or in feed, over 28-day period. One group of controls received no medication, while another group of controls received Bacitracin MD in its feed at 30 g/ton. Those chickens receiving intramuscular injections were injected once a week with a dosage of either 1 mg/kg or 2 mg/kg, based on body weight. Birds were weighed on days 0, 14 and 28.

SMILES strings stand for the structures. Where a SMILES comes first, the peptide text is derived from it.

On to `CC[C@H](C)[C@H](N)C1=N[C@H](C(=O)N[C@@H](CC(C)C)C(=O)N[C@H](CCC(=O)O)C(=O)N[C@H](C(=O)N[C@H]2CCCCNC(=O)[C@H](CC(N)=O)NC(=O)[C@@H](CC(=O)O)NC(=O)[C@H](Cc3cnc[nH]3)NC(=O)[C@@H](Cc3ccccc3)NC(=O)[C@H]([C@@H](C)CC)NC(=O)[C@@H](CCCN)NC2=O)[C@@H](C)CC)CS1` [Bacitracin MD, reference compound] (HELM PEPTIDE1{[CC[C@H](C)[C@H](N)C1=N[C@H](C(=O)[*:2])CS1].L.[dE].I.K.[NCCC[C@@H](N[*:1])C(=O)[*:2]].I.[dF].H.[dD].N}$PEPTIDE1,PEPTIDE1,5:R3-11:R2$$$V2.0), for which the F/G in assay [1] (Day 7) was 1.37; in assay [1] (Day 14) it was 1.47; in assay [1] (Day 21), 1.58; in assay [2] (Day 35), 1.59; in assay [2] (Day 44), 1.72. Besides, the “Weight Gain” value in assay [1] (Day 7) amounted to 337 g; in assay [1] (Day 14) it was 707 g; in assay [1] (Day 21), 1155 g; in assay [2] (Day 35), 1376 g; in assay [2] (Day 44) it was 1909 g; in assay [4] (Day 14), 377.0 g. Further, the “Weight Gain” value in assay [4] (Day 28) is 928.3 g. The “growth results in words” value in assay [2] (house cleaned and disinfected just prior to study) is reported as “lack of positive results”. Moreover, the “Average Live Bird Weight” value in assay [3] turned out to be 2.11 kg. Moreover, the “Feed Conversion” value in assay [3] came out at 1.75; in assay [4] (Day 14), 1.37; in assay [4] (Day 28), 1.58. The “Average Weight” value in assay [4] (Day 0 (baseline)) was 98.6 g; in assay [4] (Day 14) it was 475.6 g; in assay [4] (Day 28) it was 1026.9 g.

For the origin of these results see patent US4950669A, “Methods and compositions for promoting growth of animals” (priority 1987, dated 1990).
